Test [1] has as its system 1a-H77 replicon cells. Put plainly: HCV 1a replicon inhibitory activity (Renilla luciferase). It counts as cell-based, hepatitis C virus. The settings on record: read-out: IC50 value (95% Confidence Intervals) pM Replicon 1A assay. The method, boiled down: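 Replicon cells in DMEM + 10% FCS incubated 48 hours at 37° C., 5% CO2 with 1-in-3 serial dilutions of compound prepared in DMSO. Replication read as Renilla luciferase luminescence after lysis. EC50 taken from log concentration-response curves.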

In test [2] the test system is 1b (con1) replicon cells. Put plainly: HCV 1b replicon inhibitory activity (luciferase, Britelite Plus). It counts as cell-based, hepatitis C virus. Particulars: read-out: IC50 value (95% Confidence Intervals) pM Replicon 1B assay. The method, boiled down:
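1b (con1) luciferase replicon cells in DMEM + 10% FCS were exposed to 1-in-3 DMSO compound dilutions for 48 h at 37° C, 5% CO2. Luminescence was read 1-15 min after Britelite Plus addition; EC50 came from log concentration-response curves.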

[3] abbreviates: Hepatitis C virus, geometric mean, 95% confidence intervals in parentheses, 48 hours, medium with 10% FCS.
The mark [4] stands for this setting: geometric mean, 95% confidence intervals in parentheses, 48 hours, medium with 10% FCS.

Each structure is given as a SMILES string. Structures can show the parent of a compound that is named as a salt. Where two headings read alike, the source gives them in different places.

As for `COC(=O)N[C@H](C(=O)N1CCC[C@H]1c1nc(-c2ccc(-c3cnc4cc(-c5cnc([C@@H]6CCCN6C(=O)[C@@H](C)NC(C)=O)[nH]5)ccc4n3)cc2)c[nH]1)C(C)C` [Example 46, Methyl {(2S)-1-[(2S)-2-{4-[4-(6-(2-[(2S)-1-(N-acetyl-D-alanyl)pyrrolidin-2-yl]-1H-imidazol-5-yl}quinoxalin-2-yl)phenyl]-1H-imidazol-2-yl}pyrrolidin-1-yl]-3-methyl-1-oxobutan-2-yl}carbamate trifluoroacetic acid salt], the IC50 came out at 803 pM in test [1] (Hepatitis C virus, 48 h) and 44.2 pM in test [2] (Hepatitis C virus, 48 h).

In the case of `COC(=O)N[C@H](C(=O)N1CCC[C@H]1c1nc(-c2ccc(-c3cnc4cc(-c5cnc([C@@H]6CCCN6C(=O)CNC(C)=O)[nH]5)ccc4n3)cc2)c[nH]1)C(C)C` [Example 35, Methyl {(2S)-1-[(2S)-2-{4-[4-(6-{2-[(2S)-1-(N-acetylglycyl)pyrrolidin-2-yl]-1H-imidazol-5-yl}quinoxalin-2-yl)phenyl]-1H-imidazol-2-yl}pyrrolidin-1-yl]-3-methyl-1-oxobutan-2-yl}carbamate trifluoroacetic acid salt], the IC50 in test [1] (Hepatitis C virus, 48 h) amounted to 2300 pM; in test [2] (Hepatitis C virus, 48 h) it was 254 pM.

Regarding `COC(=O)N[C@H](C(=O)N1CCC[C@H]1c1nc(-c2ccc(-c3cnc4cc(-c5cnc([C@@H]6CCCN6C(=O)[C@@H](COCc6ccccc6)NC(=O)OC)[nH]5)ccc4n3)cc2)c[nH]1)C(C)C` [Example 63, Methyl {(2S)-1-[(2S)-2-{4-[4-(6-{2-[(2S)-1-{(2R)-3-(benzyloxy)-2-[(methoxycarbonyl)amino]propanoyl}pyrrolidin-2-yl]-1H-imidazol-5-yl}quinoxalin-2-yl)phenyl]-1H-imidazol-2-yl}pyrrolidin-1-yl]-3-methyl-1-oxobutan-2-yl}carbamate trifluoroacetic acid salt], the IC50 in test [1] (Hepatitis C virus, 48 h) was 4770 pM; in test [2] (Hepatitis C virus, 48 h) it was 400 pM.

Regarding `COC(=O)N[C@H](C(=O)N1CCC[C@H]1c1nc(-c2ccc3cc(-c4ccc(-c5cnc([C@@H]6CCCN6C(=O)[C@@H](NC(=O)OC)C(C)C)[nH]5)cc4)ccc3n2)c[nH]1)C(C)C` [Example 13, Methyl {(2S)-1-[(2S)-2-{5-[4-(2-{2-[(2S)-1-{(2S)-2-[(methoxycarbonyl)amino]-3-methyl-butanoyl}pyrrolidin-2-yl]-1H-imidazol-4-yl}quinolin-6-yl)phenyl]-1H-imidazol-2-yl}pyrrolidin-1-yl]-3-methyl-1-oxobutan-2-yl}carbamate], the IC50 in test [1] (setting [3]) was 78.1 pM; in test [2] (setting [3]) it was 12 pM.

Turning to `COC(=O)N[C@H](C(=O)N1CCC[C@H]1c1nc(-c2ccc(-c3cnc4cc(-c5cnc([C@@H]6CCCN6C(=O)CNC(=O)CC(C)C)[nH]5)ccc4n3)cc2)c[nH]1)C(C)C` [Example 33, Methyl {(2S)-3-methyl-1-[(2S)-2-(4-{4-[6-(2-{(2S)-1-[N-(3-methylbutanoyl)glycyl]pyrrolidin-2-yl}-1H-imidazol-5-yl)quinoxazolin-2-yl]phenyl}-1H-imidazol-2-yl}pyrrolidin-1-yl]-1-oxobutan-2-yl} carbamate trifluoroacetic acid salt], the IC50 was determined as 2590 pM in test [1] (setting [4]) and 32.2 pM in test [2] (setting [4]).

As for `COC(=O)N[C@H](C(=O)N1CCC[C@H]1c1nc(-c2ccc(-c3cnc4cc(-c5cnc([C@@H]6CCCN6C(=O)[C@@H](NC(C)=O)[C@@H](C)O)[nH]5)ccc4n3)cc2)c[nH]1)C(C)C` [Example 40, Methyl {(2S)-1-[(2S)-2-{4-[4-(6-{2-[(2S)-1-(N-acetyl-L-threonyl)pyrroldiin-2-yl]-1H-imidazol-5-yl}quinoxalin-2-yl)phenyl]-1H-imidazol-2-yl}pyrrolidin-1-yl]-3-methyl-1-oxobutan-2-yl}carbamate trifluoroacetic acid salt], the IC50 is 353 pM in test [1] (setting [4]) and 55.8 pM in test [2] (setting [4]).

For `COC(=O)N[C@H](C(=O)N1CCC[C@H]1c1nc(-c2ccc(-c3cnc4cc(-c5cnc([C@@H]6CCCN6C(=O)CNC(=O)c6cnc(C)cn6)[nH]5)ccc4n3)cc2)c[nH]1)C(C)C` [Example 41, Methyl {(2S)-3-methyl-1-[(2S)-2-{4-[4-(6-{2-[(2S)-1-{N-[(5-methylpyrazin-2-yl)carbonyl]glycyl}pyrrolidin-2-yl]-1H-imidazol-5-yl}quinoxalin-2-yl)phenyl]-1H-imidazol-2-yl}pyrrolidin-1-yl]-1-oxobutan-2-yl}carbamate trifluoroacetic acid salt], the half-inhibitory concentration (IC50) in test [1] (Hepatitis C virus, 48 h) was 1950 pM; in test [2] (Hepatitis C virus, 48 h), 128 pM.

As to `CCC[C@H](NC(=O)OC)C(=O)N1CCC[C@H]1c1ncc(-c2ccc3nc(-c4ccc(-c5c[nH]c([C@@H]6CCCN6C(=O)[C@@H](NC(=O)OC)C(C)C)n5)cc4)cnc3c2)[nH]1` [Example 55, Methyl {(2S)-1-[(2S)-2-{5-[2-(4-{2-[(2S)-1-{(2S)-2-[(methoxycarbonyl)amino]-3-methylbutanoyl}pyrrolidin-2-yl]-1H-imidazol-4-yl}phenyl)quinoxalin-6-yl]-1H-imidazol-2-yl}pyrrolidin-1-yl]-1-oxopentan-2-yl}carbamate trifluoroacetic acid salt], the IC50 in test [1] (Hepatitis C virus, 48 h) is 18.1 pM; in test [2] (Hepatitis C virus, 48 h), 8.85 pM.

For `COC(=O)NCC(=O)N1CCC[C@H]1c1ncc(-c2ccc3nc(-c4ccc(-c5c[nH]c([C@@H]6CCCN6C(=O)[C@@H](NC(=O)OC)C(C)C)n5)cc4)cnc3c2)[nH]1` [Example 65, Methyl {2-[(2S)-2-[5-[2-(4-{2-[(2S)-1-{(2S)-2-[(methoxycarbonyl)amino]-3-methylbutanoyl}pyrrolidin-2-yl]-1H-imidazol-4-yl}phenyl)quinoxalin-6-yl]-1H-imidazol-2-yl}pyrrolidin-1-yl]-2-oxoethyl)carbamate trifluoroacetic acid salt], the IC50 in test [1] (Hepatitis C virus, 48 h) is 700 pM; in test [2] (Hepatitis C virus, 48 h) it was 54.5 pM.

Consider `COC(=O)N[C@H](C(=O)N1CCC[C@H]1c1ncc(-c2ccc(-c3ccc4cc(-c5cnc([C@@H]6CCCN6C(=O)[C@@H](NC(=O)OC)C(C)C)[nH]5)ncc4c3)cc2)[nH]1)C(C)C` [Example 8, Methyl {(2S)-1-[(2S)-2-{5-[4-(3-{2-[(2S)-1-{(2S)-2-[(methoxycarbonyl)amino]-3-methyl-butanoyl}pyrrolidin-2-yl]-1H-imidazol-5-yl}isoquinolin-7-yl)phenyl]-1H-imidazol-2-yl}pyrrolidin-1-yl]-3-methyl-1-oxobutan-2-yl}carbamate], for which the IC50 in test [1] (setting [3]) turned out to be 91.2 pM; in test [2] (setting [3]), 20.5 pM.

On to `COC(=O)N[C@H](C(=O)N1CCC[C@H]1c1nc(-c2ccc(-c3cnc4cc(-c5cnc([C@@H]6CCCN6C(=O)C6(NC(=O)OC)CCC6)[nH]5)ccc4n3)cc2)c[nH]1)C(C)C` [Example 50, Methyl {(2S)-1-[(2S)-2-{4-[4-(6-{2-[(2S)-1-({1-[(methoxycarbonyl)amino]cyclobutyl}carbonyl)pyrrolidin-2-yl]-1H-imidazol-5-yl}quinoxalin-2-yl)phenyl]-1H-imidazol-2-yl}pyrrolidin-1-yl]-3-methyl-1-oxobutan-2-yl}carbamate trifluoroacetic acid salt], for which the IC50 in test [1] (Hepatitis C virus, 48 h) was 356 pM; in test [2] (Hepatitis C virus, 48 h), 77.2 pM.

For `COC(=O)N[C@H](C(=O)N1CCC[C@H]1c1ncc(-c2ccc(-c3cnc4cc(-c5cnc([C@@H]6CCCN6C(=O)[C@@H](NC(=O)OC)C(C)C)[nH]5)ccc4n3)nc2)[nH]1)C(C)C` [Example 9, Methyl {(2S)-1-[(2S)-2-{5-[6-(6-{2-[(2S)-1-{(2S)-2-[(methoxycarbonyl)amino]-3-methyl-butanoyl}pyrrolidin-2-yl]-1H-imidazol-5-yl}quinoxalin-2-yl)pyridin-3-yl]-1H-imidazol-2-yl}pyrrolidin-1-yl]-3-methyl-1-oxobutan-2-yl}carbamate], the IC50 in test [1] (setting [3]) was 42.9 pM; in test [2] (setting [3]) it was 12.7 pM.

For the molecule `COC(=O)N[C@@H](CC1CCCCC1)C(=O)N1CCC[C@H]1c1ncc(-c2ccc3nc(-c4ccc(-c5c[nH]c([C@@H]6CCCN6C(=O)[C@@H](NC(=O)OC)C(C)C)n5)cc4)cnc3c2)[nH]1` [Example 80, Methyl {(2S)-1-[(2S)-2-(4-{4-[6-(2-{(2S)-1-[3-cyclohexyl-N-(methoxycarbonyl)alanyl]pyrrolidin-2-yl}-1H-imidazol-5-yl)quinoxalin-2-yl]phenyl}-1H-imidazol-2-yl)pyrrolidin-1-yl]-3-methyl-1-oxobutan-2-yl} carbamate], the IC50 in test [1] (setting [4]) is 117 pM; in test [2] (setting [4]), 11.4 pM.

Consider `COC(=O)N[C@@H](CC(C)C)C(=O)N1CCC[C@H]1c1ncc(-c2ccc3nc(-c4ccc(-c5c[nH]c([C@@H]6CCCN6C(=O)[C@@H](NC(=O)OC)C(C)C)n5)cc4)cnc3c2)[nH]1` [Example 68, Methyl {(2S)-1-[(2S)-2-{5-[2-(4-{2-[(2S)-1-{(2S)-2-[(methoxycarobnyl)amino]-3-methylbutanoyl}pyrrolidin-2-yl]-1H-imidazol-4-yl}phenyl)quinoxalin-6-yl]-1H-imidazol-2-yl}pyrrolidin-1-yl]-4-methyl-1-oxopentan-2-yl}carbamate trifluoroacetic acid salt], for which the figures for the IC50 in test [1] (setting [4]) and in test [2] (setting [4]) were 23.2 pM and 8.15 pM, respectively.

The values are drawn from US20110112100A1, “Hepatitis C Virus Inhibitors” (priority 2009, published 2011).
